{"source": "patent US8084500B2", "about": "“Method of using catalpic acid to treat dyslipidemia” (Nutrition Therapeutics, Inc., priority 2005, dated 2011)", "key": {"[1]": {"tested_on": "obese mice fed high-fat diets", "conditions": "CAT-supplemented high-fat diets", "experimental": "Experiment 3 was conducted as described for Experiments 1 and 2 as indicated below except that determination of plasma lipid concentrations and quantitative real-time PCR were performed.\nSerum HDL cholesterol concentrations were determined by using a commercial precipitation assay (Wako Diagnostics, Richmond, Va.) per the manufacturer's instructions."}, "[2]": {"tested_on": "PPAR gamma", "conditions": "C57BL/6J wild-type mice, 78 days, n = 10", "experimental": "(§1) On day 28 or 78 of Experiments 1 and 2, visceral white adipose tissue (WAT) or pancreas samples were collected, stored in RNA later and frozen at −80° C. The dissection of intra-abdominal WAT was performed under magnification. RNA was isolated from WAT and pancreas specimens utilizing RNA isolation columns (Qiagen, Valencia, Calif.) per the manufacturer's instructions. RNA from the WAT was isolated using the Lipid Minikit (Qiagen). RNA was quantified using a μQuant microplate reader (Bio-TEK® Instruments, Inc., Winooski, Vt.). Briefly, total RNA (1 μg) from each sample was used to generate complementary DNA (cDNA) template using the iScript cDNA Synthesis Kit (Bio-Rad, Hercules, Calif.). The total reaction volume was 20 μl. The reaction was incubated as follows in a Tetrad Thermocycler (MJResearch, Waltham, Mass.): 5 minutes at 25° C., 30 minutes at 42° C., 5 minutes at 85° C., hold at 4° C. cDNA products were diluted 1:10 in diethylpyrocarbonate-treated water. Controls were also performed with no RNA template (no template) and omitting the reverse transcriptase enzyme (no RT).\n(§2) The PCR primer pairs were designed based on previously published sequences (GenBank) using the Oligo 6 primer design software (Molecular Biology Insights, Cascade, Colo.). The PCR primer pair sequences, annealing temperatures, accession numbers and PCR product lengths are outlined in Table 5. […] Each gene amplicon was purified by using the MiniElute PCR Purification kit (Qiagen). The purified amplicon for each gene was quantified on an agarose gel using a DNA mass ladder. These purified amplicons were further used to optimize the real-time PCR conditions and to generate the standard curves in the real-time PCR assay. Primer concentrations and annealing temperatures were optimized for the iCycler iQ System (Bio-Rad) for each set of primers using the system's gradient protocol.\n(§3) Messenger RNA (mRNA) expression of peroxisome proliferator-activated receptor (PPAR) gamma, PPAR alpha, and PPAR delta was determined in adipose tissue. […] Therefore, we also examined the expression of four PPAR alpha-responsive genes in WAT, including acyl-coenzyme A dehydrogenase (ACDH), stearoyl-coenzyme A desaturase (SCD1), enoyl-coenzyme A hydratase (ECH) and carnitine palmitoyl transferase-1 (Cpt-1).\n(§4) Transcript expression was examined by real-time, quantitative PCR by using an iCycler iQ System and the iQ SYBR Green Supermix (Bio-Rad). Real-time PCR was used to measure the starting amount of nucleic acid by assaying each unknown starting quantity of cDNA on a 96-well plate. For each gene, the results were calculated as starting quantity of cDNA (picograms) per microgram of RNA."}, "[3]": {"tested_on": "PPAR alpha", "conditions": "for PPAR alpha mRNA expression in white adipose tissue: n = 10", "experimental": "as §1, §2, §3, §4"}, "[4]": {"tested_on": "stearoyl-coenzyme A desaturase (SCD1)", "conditions": "n = 10", "experimental": "as §1, §2, §3, §4"}, "[5]": {"tested_on": "enoyl-coenzyme A hydratase (ECH)", "conditions": "n = 10", "experimental": "as §1, §2, §3, §4"}, "[6]": {"tested_on": "db/db mice", "experimental": "Mice were purchased from Harlan (Indianapolis, Ind.). Following an acclimation period of 5 days on regular rodent chow they were fed purified, high fat diets that represented a modification of the AIN-93G rodent diet in which the nutritional requirements, including those for polyunsaturated fatty acids (PUFA), were met or exceeded.\nStock fatty acid solutions, e.g., soybean oil or catalpic acid were kept at −20° C. and nitrogen-purged every time that the bottles were opened. All the experimental diets contained the same amount of energy (isocaloric) and protein (isonitrogenous). To maintain the diets isocalorically, catalpic acid replaced soybean oil in the catalpic acid diet. We utilized male, db/db [BKS.Cg-+Lepr^db/+Lepr^db/OlaHsd (type 2 Diabetic)] mice (n=20) weighing 19.86 g on day 1 of the study. The db/db mice lack the long isoform of leptin receptor and represent a well-established model of type 2 Diabetes and are often utilized to determine the pre-clinical efficacy of antidiabetic drugs. Half of the mice were fed a control and the other half a catalpic acid-supplemented diet (1 g catalpa oil/100 g diet).\n(§5) Mice were weighed on a daily basis and examined for clinical signs of disease by blinded observers. Water and feed intake were assessed on a daily basis. Fasting (12 h) glucose and insulin concentrations were determined on days 0, 7, 15, 21 and 28, of the study. Briefly, blood was collected via the caudal vein and placed onto capillary blood collection tubes. Insulin concentrations were determined by using a commercially available insulin enzyme-linked immunosorbent assay (ELISA) (Linco Research, St Charles, Mo.) per manufacturer's instructions. Mice were administered a glucose tolerance test and euthanized by CO2 narcosis on day 28 of the study. For the glucose tolerance test, animals were fasted overnight (12 hours), injected intraperitoneally with D-glucose (2 g/kg body weight) and blood samples were collected via the caudal vein prior to the injection (time 0) and at 15, 30, 60, 90, 120 and 180 minutes following the injection to determine the effect of CAT on the kinetics of glucose normalization."}, "[7]": {"tested_on": "C57BL6 mice", "experimental": "A glucose tolerance test was conducted on day 78 of the experiment. Animals were fasted overnight (14 hours). Mice were injected intraperitoneally with D-glucose (1 g/kg body weight) and blood samples were collected via the tail vein prior to the injection (time 0) and at 15, 30 and 60 minutes following the injection."}, "[8]": {"tested_on": "db/db mice", "conditions": "0-180 min after glucose injection, all time points, FIG. 2B", "experimental": "as §5"}, "[9]": {"tested_on": "C57BL6 mice", "conditions": "for White adipose tissue, g (abdominal) / Brown adipose tissue, g (interscapular) / Glucose (mg/dL), plasma fasting / Insulin (ng/mL), plasma fasting: C57BL6 mice, day 78; for White adipose tissue, g (abdominal): least squares mean", "from_the_text": "In Western countries the Metabolic Syndrome or Syndrome X (i.e., diabetes, obesity, cardiovascular disease, hypertension and hyperlipidemia) is on a steady rise. […] A total of forty-seven C57BL6 mice were used in experiment 1. Twenty-five mice were fed a control diet and […] mice were fed a diet supplemented with catalpic acid (0.6 g catalpic acid/100 g food). For the first 32 days of the experiment all diets contained 7% fat, 0.02% total cholesterol, and they obtained 14.5% of calories from fat by replacing catalpic acid with linoleic acid (wt/wt basis) in the control diet.\nThese diets are defined as regular diets and were formulated to be isocaloric between treatment groups. On day 32 of the experiment, twenty mice within each group were fed high fat diets containing 19.6% fat, 0.2% total cholesterol that obtained 40.1% of calories from fat by replacing catalpic acid with lard (wt/wt basis) in the control high fat diet.\nThe high fat diets were also formulated to be isocaloric between treatment groups. The remaining mice within each group (n=5) were fed the regular diets. On day 78 of the experiment, mice were killed, and blood was collected and immediately analyzed for fasting glucose concentrations by using the Accu-Check Instant Plus System (Roche Diagnostics Corporation, Indianapolis, Ind.) or stored for subsequent analysis of insulin and lipid concentrations in plasma. Abdominal white adipose tissue and interscapular brown adipose tissue were collected, weighed and stored at −80° C. for RNA analyses. Liver, lungs, kidneys, pancreas and heart were examined for macroscopic abnormalities (gross lesions), fixed in phosphate-buffered formalin (10%) and processed for histological evaluation. All specimens were generally labeled with the following information: 1) mouse number; 2) date collected; 3) experiment number; 4) type of solvent; and 5) tissue type.\nSerum insulin concentrations were determined by using commercially available enzyme-linked immunosorbent assay kits (Linco Research, St. Charles, Mo.)."}, "[10]": {"tested_on": "PPAR delta", "description": "On day 28 or 78 of Experiments 1 and 2, visceral white adipose tissue (WAT) or pancreas samples were collected, stored in RNA later and frozen at −80° C. The dissection of intra-abdominal WAT was performed under magnification. RNA was isolated from WAT and pancreas specimens utilizing RNA isolation columns (Qiagen, Valencia, Calif.) per the manufacturer's instructions. RNA from the WAT was isolated using the Lipid Minikit (Qiagen). RNA was quantified using a μQuant microplate reader (Bio-TEK® Instruments, Inc., Winooski, Vt.). Briefly, total RNA (1 μg) from each sample was used to generate complementary DNA (cDNA) template using the iScript cDNA Synthesis Kit (Bio-Rad, Hercules, Calif.). The total reaction volume was 20 μl. […]\nThe PCR primer pairs were designed based on previously published sequences (GenBank) using the Oligo 6 primer design software (Molecular Biology Insights, Cascade, Colo.). […] The purified amplicon for each gene was quantified on an agarose gel using a DNA mass ladder. […]\nMessenger RNA (mRNA) expression of peroxisome proliferator-activated receptor (PPAR) gamma, PPAR alpha, and PPAR delta was determined in adipose tissue. Based on the patterns of expression of the nuclear receptors in each tissue, the expression of a relevant panel of responsive genes was evaluated by quantitative real-time PCR. […]"}, "[11]": {"conditions": "C57BL/6J wild-type mice, 78 days"}, "[12]": {"conditions": "high fat diets, CAT-supplemented"}, "[13]": {"conditions": "regular diets, CAT-supplemented"}}, "note": "Read-outs that look alike come from different tables or passages of the source. Marks after values point to notes of the source that are not given here."}
{"smiles": "CCCC\\C=C/C=C/C=C/CCCCCCCC(=O)O", "note": "[CAT, catalpic acid]", "values": [{"measurement": "plasma triglyceride concentrations versus control high-fat diet", "setting": "[1]; mice, FIG. 6B", "result": "lower"}, {"measurement": "HDL cholesterol concentrations versus control high-fat diet", "setting": "[1]; obese mice, FIG. 6A", "result": "greater"}, {"measurement": "PPAR gamma mRNA expression in white adipose tissue", "setting": "[2]", "result": "0.074 picograms of starting cDNA per microgram of white adipose tissue total RNA"}, {"measurement": "PPAR alpha mRNA expression in white adipose tissue", "setting": "[3]; [11]", "result": "0.005^a picograms of starting cDNA per microgram of white adipose tissue total RNA"}, {"measurement": "PPAR alpha mRNA expression in white adipose tissue", "setting": "[3]; db/db mice, 28 days", "result": "0.0052^a picograms of starting cDNA per microgram of white adipose tissue total RNA"}, {"measurement": "pancreatic concentrations of PPAR alpha and its responsive genes", "setting": "[3]; pancreas of CAT-fed mice", "result": "unchanged"}, {"measurement": "Stearoyl CoA Desaturase mRNA expression in white adipose tissue", "setting": "[4]; [11]", "result": "0.130^a picograms of starting cDNA per microgram of white adipose tissue total RNA"}, {"measurement": "Stearoyl CoA Desaturase mRNA expression in white adipose tissue", "setting": "[4]; db/db mice, 28 days", "result": "0.095^a picograms of starting cDNA per microgram of white adipose tissue total RNA"}, {"measurement": "Enoyl CoA Hydratase mRNA expression in white adipose tissue", "setting": "[5]; [11]", "result": "0.0039^a picograms of starting cDNA per microgram of white adipose tissue total RNA"}, {"measurement": "Enoyl CoA Hydratase mRNA expression in white adipose tissue", "setting": "[5]; db/db mice, 28 days", "result": "0.0024 picograms of starting cDNA per microgram of white adipose tissue total RNA"}, {"measurement": "difference in WAT weight between groups attributable to catalpic acid", "setting": "[6]; day 28", "result": "over 10%"}, {"measurement": "abdominal WAT weight versus control", "setting": "[6]; day 28, FIG. 5", "result": "significantly lower"}, {"measurement": "body weight versus control", "setting": "[6]; high fat diet, FIG. 4A", "result": "No differences"}, {"measurement": "feed intake versus control", "setting": "[6]; high fat diet, FIG. 4B", "result": "No differences"}, {"measurement": "glucose concentrations", "setting": "[6]; high fat diet, day 28 (control 425 mg/dl)", "result": 290, "unit": "mg/dL"}, {"measurement": "fasting plasma insulin concentrations", "setting": "[6]; high fat diet, days 0-28, remained at basal levels, FIG. 3", "result": "lower than 4 ng/ml"}, {"measurement": "fasting plasma glucose versus high fat control diet", "setting": "[6]; high fat diet, days 14, 21 and 28, P<0.05, FIG. 2A", "result": "lower"}, {"measurement": "glucose tolerance versus control", "setting": "[7]; mice fed high fat diets, FIG. 1B", "result": "normalizes impaired glucose tolerance"}, {"measurement": "glucose tolerance versus control", "setting": "[7]; mice fed regular diets, FIG. 1A", "result": "not different"}, {"measurement": "glucose normalizing ability versus control", "setting": "[8]", "result": "greater"}, {"measurement": "White adipose tissue, g (abdominal)", "setting": "[9]; high fat diets from day 32, CAT-supplemented", "result": "0.607^b g"}, {"measurement": "Brown adipose tissue, g (interscapular)", "setting": "[9]; [12]", "result": 0.105, "unit": "g"}, {"measurement": "Glucose (mg/dL), plasma fasting", "setting": "[9]; [12]", "result": "205.43^b mg/dL"}, {"measurement": "Insulin (ng/mL), plasma fasting", "setting": "[9]; [12]", "result": "0.730^b ng/mL"}, {"measurement": "Brown adipose tissue, g (interscapular)", "setting": "[9]; [13]", "result": 0.169, "unit": "g"}, {"measurement": "Glucose (mg/dL), plasma fasting", "setting": "[9]; [13]", "result": "146.20^b mg/dL"}, {"measurement": "Insulin (ng/mL), plasma fasting", "setting": "[9]; [13]", "result": "0.960^b ng/mL"}, {"measurement": "White adipose tissue, g (abdominal)", "setting": "[9]; [13]", "result": "0.751^b g"}, {"measurement": "fatty liver or enlarged viscera", "setting": "[9]; mice fed catalpic acid-supplemented diets, Experiment 1", "result": "not observed"}, {"measurement": "PPAR delta mRNA expression in white adipose tissue", "setting": "[10]; C57BL/6J wild-type mice, 78 days, n = 10", "result": "0.007 picograms of starting cDNA per microgram of white adipose tissue total RNA"}, {"measurement": "PPAR delta expression in the pancreas", "setting": "[10]; pancreas of CAT-fed mice, P<0.04", "result": 0.069}]}
